One experiment concerns HL60. The experiment can be described thus: Calcein AM cytotoxicity assay. The experiment is classed as cell-based. Particulars: Homo sapiens, HL-60, 72 h, three days.
The subject of experiment [1] is MOLM-13 (acute myeloid leukemia, FLT3-ITD positive). The experiment can be described thus: Calcein AM cytotoxicity assay. Format: cell-based. Conditions: Homo sapiens, 72 h; MOLM-13; Calcein AM, three days; read-out: EC50 values (μM) MOLM-13. A digest of the protocol:
(§1)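 After overnight attachment in 96-well format, test compounds are applied at a range of concentrations in triplicate and left for three days. Calcein AM is then added to 1 μg/ml final for 1 h, and fluorescence of the calcein released by intracellular esterases measures viable cell number.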

In experiment [2] the test system is U937 (monocytic leukemia, wt FLT3). The experiment can be described thus: Calcein AM cytotoxicity assay. Conditions: Homo sapiens, U-937, 72 h; U937; Calcein AM, three days; read-out: EC50 values (μM) U937. The experiment is classed as cell-based. A digest of the protocol:
as §1

In experiment [3] the test system is EOL-1 (eosinophilic leukaemia, carrying the fusion FIP1L1-PDGFRA). The experiment can be described thus: Calcein AM cytotoxicity assay. Format: cell-based. Conditions: Homo sapiens, EOL1, 72 h; EOL-1; Calcein AM, three days; read-out: EC50 values (μM) EOL-1. A digest of the protocol: as §1
For experiment [4], the system named is MV4-11 (acute myeloid leukemia, FLT3-ITD positive). The experiment can be described thus: Calcein AM cytotoxicity assay. Particulars: Homo sapiens, 72 h; MV4-11; Calcein AM, three days after drug addition; read-out: EC50 values (μM) MV4-11. Format: cell-based. A digest of the protocol:
as §1

The test system of a further experiment is K562. The experiment can be described thus: Calcein AM cytotoxicity assay. The experiment is classed as cell-based. Conditions: Homo sapiens, 72 h; K562; Calcein AM, three days; read-out: EC50 values (μM) K562. A digest of the protocol:
as §1

Experiment [5] concerns THP-1 (acute myeloid leukemia, wt FLT3). The experiment can be described thus: Calcein AM cytotoxicity assay. Format: cell-based. Particulars: Homo sapiens, 72 h; THP-1; Calcein AM, three days; read-out: EC50 values (μM) THP-1. Summed up: as §1
The next experiment has as its system MCF-7. The experiment can be described thus: Calcein AM cytotoxicity assay. Format: cell-based. Conditions: Homo sapiens, MCF7, 72 h; MCF-7; Calcein AM, three days; read-out: EC50 values (μM) MCF-7. Summed up:
as §1

Experiment [6] concerns Kasumi-1 (acute myeloid leukemia, KIT mutation Asn822Lys). The experiment can be described thus: Calcein AM cytotoxicity assay. The experiment is classed as cell-based. Particulars: Homo sapiens, 72 h; Kasumi-1; Calcein AM, three days; read-out: EC50 values (μM) Kasumi-1. Summed up:
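Kasumi-1 cells were grown in RPMI-1640 + 15% FBS, other lines at 37° C., 5% CO2, and seeded the day before compound addition in triplicates at various concentrations. After 3 days, viability was read with Calcein AM (1 μg/ml final, 1 h) as live-cell fluorescence at ex 485/em 538 nm.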

The target of the next experiment is T1, FLT3-ITD (Homo sapiens, UniProt P36888).
T1 sequence (P36888 1-993): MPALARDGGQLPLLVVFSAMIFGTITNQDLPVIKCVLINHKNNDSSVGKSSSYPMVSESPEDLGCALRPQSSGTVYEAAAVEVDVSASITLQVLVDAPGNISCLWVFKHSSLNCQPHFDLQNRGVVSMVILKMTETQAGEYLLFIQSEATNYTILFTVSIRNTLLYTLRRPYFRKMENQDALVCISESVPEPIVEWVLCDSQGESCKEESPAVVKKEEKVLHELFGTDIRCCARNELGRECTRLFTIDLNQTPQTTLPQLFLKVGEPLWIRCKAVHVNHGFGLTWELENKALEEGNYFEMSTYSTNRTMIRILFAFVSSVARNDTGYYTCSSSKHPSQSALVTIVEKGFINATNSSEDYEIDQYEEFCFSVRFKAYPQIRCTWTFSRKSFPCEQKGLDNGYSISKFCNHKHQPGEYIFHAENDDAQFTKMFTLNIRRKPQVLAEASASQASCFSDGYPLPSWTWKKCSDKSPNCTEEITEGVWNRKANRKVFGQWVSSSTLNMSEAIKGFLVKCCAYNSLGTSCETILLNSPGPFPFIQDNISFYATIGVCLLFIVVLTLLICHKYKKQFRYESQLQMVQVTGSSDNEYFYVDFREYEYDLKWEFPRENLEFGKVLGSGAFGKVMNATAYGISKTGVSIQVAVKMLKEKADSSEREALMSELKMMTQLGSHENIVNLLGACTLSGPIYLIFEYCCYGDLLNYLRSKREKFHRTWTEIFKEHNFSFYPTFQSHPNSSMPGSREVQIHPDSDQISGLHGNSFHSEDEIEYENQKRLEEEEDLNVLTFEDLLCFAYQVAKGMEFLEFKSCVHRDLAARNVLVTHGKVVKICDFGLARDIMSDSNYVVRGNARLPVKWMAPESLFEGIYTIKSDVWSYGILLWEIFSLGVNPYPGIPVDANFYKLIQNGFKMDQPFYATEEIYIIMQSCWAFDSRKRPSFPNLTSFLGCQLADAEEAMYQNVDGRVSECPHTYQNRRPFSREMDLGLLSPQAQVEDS
As to the kind of experiment: Kinase inhibition assay with [γ-33P]ATP. Format: biochemical. Conditions: AGLT substrate, 1 μM ATP; read-out: IC50 values (μM) FLT3 ITD. Summed up:
(§2)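 Radiometric [γ-33P]ATP assay in HEPES pH 7.5 with Mg2+/Mn2+: CDK1/Cyclin B (Sf9-expressed) and purchased CDK5/p35 with 1 mg/mL histone H1 at 15 and 0.15 μM ATP respectively; FLT3 WT and FLT3-ITD with AGLT substrate at 1 μM ATP. Reactions stopped with H3PO4, spotted onto phosphocellulose and washed.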

Another experiment addresses T2, CDK1/Cyclin B (Homo sapiens, UniProt P06493).
T2 construct: made in house; host or cells: Sf9 insect cells, baculoviral infection
As to the kind of experiment: Kinase inhibition assay with [γ-33P]ATP. The experiment is classed as biochemical. Particulars: histone H1, 15 μM ATP. A digest of the protocol: as §2

A further experiment concerns the target T3, FLT3 D835 (Homo sapiens, UniProt P36888).
T3 sequence (P36888 1-993 D835Y): T1 sequence (P36888 1-993) with D835Y
The experiment can be described thus: Kinase inhibition assay with [γ-33P]ATP. Conditions: AGLT substrate, 1 μM ATP. The experiment is classed as biochemical.

For the next experiment, the target named is T4, CDK2/Cyclin E (Homo sapiens, UniProt P24941).
T4 construct: made in house; host or cells: Sf9 insect cells, baculoviral infection
As to the kind of experiment: Kinase inhibition assay with [γ-33P]ATP. The experiment is classed as biochemical. Conditions: histone H1, 15 μM ATP; read-out: IC50 values (μM) CDK2. Summed up:
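Human CDK2/Cyclin E, expressed in baculovirus-infected Sf9 insect cells and purified on a NiNTA column, was assayed with 1 mg/mL histone H1 substrate, 15 μM ATP plus 0.05 μCi [γ-33P]ATP and test compound in 10 μL of buffer (60 mM HEPES-NaOH pH 7.5, 3 mM MgCl2, 3 mM MnCl2, 3 μM Na-orthovanadate, 1.2 mM DTT, PEG20,000). Reactions were quenched with 5 μL 3% H3PO4, spotted onto P-81 phosphocellulose, washed and dried.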

A further experiment concerns the target T5, CDK5/p35 (Homo sapiens, UniProt Q00535).
T5 construct: purchased ProQinase GmbH
The experiment can be described thus: Kinase inhibition assay with [γ-33P]ATP. Format: biochemical. Conditions: histone H1, 0.15 μM ATP. A digest of the protocol:
as §2

For a further experiment, the target named is T6, FLT3 WT (Homo sapiens, UniProt P36888).
T6 construct: purchased ProQinase GmbH
T6 sequence (P36888 27-993): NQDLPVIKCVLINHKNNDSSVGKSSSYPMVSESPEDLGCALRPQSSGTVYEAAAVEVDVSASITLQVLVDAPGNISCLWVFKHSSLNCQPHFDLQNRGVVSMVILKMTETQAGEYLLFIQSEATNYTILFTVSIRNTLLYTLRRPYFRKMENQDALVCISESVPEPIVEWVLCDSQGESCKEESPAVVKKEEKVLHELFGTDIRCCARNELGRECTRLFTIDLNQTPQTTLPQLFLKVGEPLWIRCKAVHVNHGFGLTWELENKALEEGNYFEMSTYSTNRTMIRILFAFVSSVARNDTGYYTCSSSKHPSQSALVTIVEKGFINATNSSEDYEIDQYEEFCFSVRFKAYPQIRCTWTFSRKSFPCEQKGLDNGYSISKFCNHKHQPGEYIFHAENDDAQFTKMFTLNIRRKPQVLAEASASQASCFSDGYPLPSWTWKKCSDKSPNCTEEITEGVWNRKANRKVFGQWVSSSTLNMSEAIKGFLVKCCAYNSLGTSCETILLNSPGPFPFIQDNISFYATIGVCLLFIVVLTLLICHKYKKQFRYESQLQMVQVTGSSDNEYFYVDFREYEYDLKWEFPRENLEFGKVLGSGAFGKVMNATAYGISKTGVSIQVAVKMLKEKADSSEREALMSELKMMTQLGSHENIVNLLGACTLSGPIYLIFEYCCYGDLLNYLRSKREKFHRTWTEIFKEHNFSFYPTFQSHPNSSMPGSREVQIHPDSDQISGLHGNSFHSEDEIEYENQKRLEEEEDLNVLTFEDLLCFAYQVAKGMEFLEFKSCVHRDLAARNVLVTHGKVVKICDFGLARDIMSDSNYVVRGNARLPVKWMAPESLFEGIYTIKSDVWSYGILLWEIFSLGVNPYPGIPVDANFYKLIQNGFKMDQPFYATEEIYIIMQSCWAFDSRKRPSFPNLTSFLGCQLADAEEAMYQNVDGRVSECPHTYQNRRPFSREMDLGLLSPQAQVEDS
As to the kind of experiment: Kinase inhibition assay with [γ-33P]ATP. Conditions: AGLT substrate, 1 μM ATP. The experiment is classed as biochemical. A digest of the protocol:
as §2

In patent US11028087B2, “2,6-disubstituted-9-cyclopentyl-9H-purines, use thereof as medicaments, and pharmaceutical compositions” (UNIVERZITA PALACKEHO V OLOMOUCI, priority 2017, dated 2021) one finds EC50 and IC50 data, which are given here for 3 molecules.

Changes are numbered by the printed parent chain.

Broadly, the EC50 is the concentration needed to bring the measured effect to its halfway point. As usually defined, the IC50 is the point on the concentration scale where inhibition reaches its midpoint.

T5 sequence (Q00535 whole entry): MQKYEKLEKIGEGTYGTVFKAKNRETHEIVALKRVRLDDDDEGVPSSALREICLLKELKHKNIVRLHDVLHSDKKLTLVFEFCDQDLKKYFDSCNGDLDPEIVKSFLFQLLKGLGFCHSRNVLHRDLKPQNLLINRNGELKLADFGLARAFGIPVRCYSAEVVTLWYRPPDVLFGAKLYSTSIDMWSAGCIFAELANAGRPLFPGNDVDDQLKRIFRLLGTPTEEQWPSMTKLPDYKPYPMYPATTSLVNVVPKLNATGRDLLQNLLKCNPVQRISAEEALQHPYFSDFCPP
T5 sequence (Q15078 whole entry partner): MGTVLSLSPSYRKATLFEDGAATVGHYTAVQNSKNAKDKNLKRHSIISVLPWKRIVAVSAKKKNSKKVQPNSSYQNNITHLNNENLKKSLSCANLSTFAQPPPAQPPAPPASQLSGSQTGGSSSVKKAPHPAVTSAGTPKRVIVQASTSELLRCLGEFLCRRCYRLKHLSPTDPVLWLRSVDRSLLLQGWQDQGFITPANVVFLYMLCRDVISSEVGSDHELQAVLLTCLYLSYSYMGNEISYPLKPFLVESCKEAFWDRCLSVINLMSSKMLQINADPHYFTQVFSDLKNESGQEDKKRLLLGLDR
T2 sequence (P06493 whole entry, species assumed): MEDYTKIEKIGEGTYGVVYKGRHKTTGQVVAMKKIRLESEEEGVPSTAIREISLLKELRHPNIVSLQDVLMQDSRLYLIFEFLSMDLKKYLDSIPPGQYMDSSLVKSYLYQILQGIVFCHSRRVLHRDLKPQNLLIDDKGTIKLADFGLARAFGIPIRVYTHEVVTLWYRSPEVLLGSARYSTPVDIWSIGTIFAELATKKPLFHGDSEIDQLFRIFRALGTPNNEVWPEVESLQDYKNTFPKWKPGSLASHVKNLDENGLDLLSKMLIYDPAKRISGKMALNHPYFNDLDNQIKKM
T2 sequence (P14635 whole entry partner, species assumed): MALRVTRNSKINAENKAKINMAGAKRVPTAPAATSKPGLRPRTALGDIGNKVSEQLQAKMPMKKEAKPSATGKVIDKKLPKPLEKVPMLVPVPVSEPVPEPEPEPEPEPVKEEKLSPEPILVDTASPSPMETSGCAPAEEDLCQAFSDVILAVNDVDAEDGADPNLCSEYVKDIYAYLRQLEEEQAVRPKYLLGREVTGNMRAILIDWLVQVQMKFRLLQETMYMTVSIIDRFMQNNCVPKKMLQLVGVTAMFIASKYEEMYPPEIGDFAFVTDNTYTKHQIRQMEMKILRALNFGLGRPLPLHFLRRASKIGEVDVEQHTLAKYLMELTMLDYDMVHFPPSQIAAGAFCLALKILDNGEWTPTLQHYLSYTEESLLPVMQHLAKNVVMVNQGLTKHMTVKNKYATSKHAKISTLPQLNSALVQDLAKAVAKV

As for `NC1CCC(Nc2nc(Nc3ccc(CN4CC5(COC5)C4)nc3)c3ncn(C4CCCC4)c3n2)CC1` (stereo not drawn) [Compound 5], the EC50 was 1.21 µM with HL60; 0.014 µM in experiment [1]; 0.44 µM in experiment [2]; 0.019 µM in experiment [3]; 0.011 µM in [4]; 0.432 µM in the experiment with K562. Further, the EC50 is 0.903 µM in [5], 0.41 µM in the experiment with MCF-7 and 0.588 µM in experiment [6].

With `CCN1CC2(C1)CN(Cc1ccc(Nc3nc(NC4CCC(O)CC4)nc4c3ncn4C3CCCC3)cc1)C2` (stereo not drawn) [Compound 8], the EC50 in the experiment on HL60 is 1.42 µM; in experiment [1], 0.056 µM; in [2] it was 1.35 µM; in [3] it was 0.049 µM; in experiment [4], 0.042 µM; with K562, 0.391 µM. In addition, the figures for the EC50 (in experiment [5]; in the experiment with MCF-7; in [6]) were 2.1 µM, 0.22 µM and 0.636 µM, respectively.

`CCN1CC2(C1)CN(Cc1ccc(Nc3nc(NCCCN)nc4c3ncn4C3CCCC3)cc1)C2` [Compound 20]: the IC50 stood at 0.004 µM at FLT3-ITD; 0.04 µM at CDK1/Cyclin B; 0.004 µM on FLT3 D835; 0.005 µM on CDK2/Cyclin E; 0.044 µM at CDK5/p35; 0.015 µM against FLT3 WT.
